Test results as given in PMC10447463, “Data-mining unveils structure–property–activity correlation of viral infectivity enhancing self-assembling peptides” (Nature Communications, 2023).
Where two headings read alike, the source gives them in different places.

Experiments:
[1] = Turbidity, derived count rate of scattered light; type: physicochemical; conditions: for Count Rate / kcps: derived count rate of scattered light at 633 nm, 173°, from zeta-potential measurement, 0.1 mg/mL in 1 mM KCl after 1 d at 1 mg/mL in PBS, turbidity / microscopic aggregation, mean of triplicate; for Zeta Count Rate: peptides with TEM 2cat 0
In short: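 One-day room-temperature aggregation at 1 mg/mL in PBS (pH 7.4) preceded measurement; samples then went into 1 mM KCl. Triplicates per sample, two independent experiments averaged.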

[2] = type: physicochemical; design: key to Fibril / Fibril Formation / TEM 2cat / Fibril: 1 = fibrils present; 0 non-fibrillar structures; conditions: for Fibril / Fibril Formation: 1 mg/mL, uranyl acetate stain, qualitative
[3] = system: HIV-1 infection of TZM-bl cells; assay: HIV-1 infectivity enhancement assay, β-galactosidase luminescence; type: cell-based; conditions: for Rel-EFC: infection relative to EF-C (QCKIKQIINMWQ = 1); for Log10 Infection Rel EFC: log10 of infection relative to EF-C; for Log Infectivity: Log10 infection relative to EF-C, asymmetric std dev errors; for Log10 Infection Rel EF-C: HIV-1 infection of TZM-bl cells; for Log10 of Rel to EFC (Feb2021): Log10 of infection relative to EF-C; for Abs. Inf.: β-galactosidase luminescence; for Log10 Inf. rel. to EF-C: log10 of HIV-1 infection of TZM-bl cells relative to EF-C (EF-C = 0)
[4] = Log10 of derived count rate of scattered light (turbidity)
[5] = log10 of derived count rate of scattered light (turbidity)
[6] = turbidity, Log10 of derived count rate of scattered light, Figure 3A source data
[7] = Fig S10 panel D, fibril category by TEM
[8] = TEM, 1 = fibrils present, 0 = non-fibrillar
[9] = TEM, 1 = fibrils present, 0 = non-fibrillar structures
[10] = category: fibrils present or non-fibrillar
[11] = Fig. S7 panel A (plotted against β-sheet content), TZM-bl cells
[12] = Fig. S7 panel B (plotted against CR), rounded to two decimals, TZM-bl cells
[13] = Log10 of infection rate relative to EF-C, Figure 3A source data
[14] = infection rate relative to EF-C, log10, data of Figure 2D
[15] = infection rate relative to EF-C, log10, source data of Figure 2C
[16] = second listing, peptides with TEM 2cat 0
[17] = FigS12 panel A, fibril category by TEM
[18] = absolute HIV-1 infection signal, TZM-bl cells
[19] = turbidity, log10 of derived count rate of scattered light
[20] = absolute infection signal, HIV-1 on TZM-bl cells

Sequence	Log10 Count Rate [1, 4]	Count Rate / kcps [1] [kcps]	Log10 Count Rate [1, 5]	Log10 Count Rate [1, 6]	TEM 2cat [2, 7]	Fibril ([2]; Fig S10 panel E)	Fibril / Fibril Formation ([2]; TEM)	Fibril [2, 8]	Fibril [2, 9]	TEM 2cat [2, 10]	Rel-EFC ([3]; 1.3 µM peptide)	Log10 Infection Rel EFC ([3]; 1.3 µM peptide)	Log Infectivity [3, 11]	Log Infectivity [3, 12]	Log10 Infection Rel EF-C [3, 13]	Log10 Infection Rel EF-C [3, 14]	Log10 Infection Rel EF-C [3, 15]	Log10 of Rel to EFC (Feb2021) ([3]; all peptides of FigS16)	Abs. Inf. [3, 18]	further results
HHHHKIKIKIKIWWWW	4.376	23757	4.376	4.376	0	0	0	0	0	0	0,38	-0,42	-0.4216	-0.42	-0.42	-0.4216	-0.4216	-0.42		Log10 Count Rate ([1]; logarithm of count rate in kcps): 4.376; Zeta Count Rate [1]: 23757 kcp; Log10 of Rel to EFC (Feb2021) [3, 16]: -0.42
KAKAKAQA	1.886	77	1.886	1.886	0		0	0	0		0,01	-2,06	-2.06		-2.06	-2.06	-2.06			TEM 2cat [2, 17]: 0; Fibril ([2]; FigS12 panel B, TEM): 0
KIKIKIQINMWQ	3.205	1603	3.205	3.205	1		1	1	1	1	0,79	-0,1	-0.1048		-0.1	-0.1048	-0.1048	-0.1	20353.33333	
MKIKIQINMWQ	3.169	1475	3.169	3.169	1		1	1	1	1	0,42	-0,38	-0.378		-0.38	-0.378	-0.378	-0.38		
IKVAVKIKIQINM	3.686	4848	3.686	3.686	1		1	1	1	1	0,5	-0,3	-0.3046		-0.3	-0.3046	-0.3046	-0.3	17920	
KFKFQFNM	2.12	132		2.12		1	1	1	1	1	0,47	-0,33	-0.3265	-0.33	-0.33	-0.3265	-0.3265	-0.33		Log10 Count Rate [1, 19]: 2.12; TEM 2cat ([2]; Fig S10 panel D): 1; Abs. Inf. [3, 20]: 7067; Log10 Inf. rel. to EF-C [3]: -0.3265
RGDKIKIQIC	3.876	7509	3.876	3.876	1	1	1	1	1	1	0,83	-0,08	-0.07993	-0.08	-0.08	-0.07993	-0.07993	-0.08		
CKIKIQIRGD	3.762	5777	3.762	3.762	1	1	1	1	1	1	0,33	-0,48	-0.4842	-0.48	-0.48	-0.4842	-0.4842	-0.48		
QCKIKIQINM	3.979	9524		3.979		1	1	1	1	1	0,4	-0,4	-0.4024	-0.4	-0.4	-0.4024	-0.4024	-0.4		Log10 Count Rate [1, 19]: 3.979; TEM 2cat ([2]; Fig S10 panel D): 1; Abs. Inf. [3, 20]: 15250; Log10 Inf. rel. to EF-C [3]: -0.4024
KFKFEFEF	3.34	2186	3.34	3.34	1		1	1	1		0,03	-1,55	-1.547		-1.55	-1.547	-1.547			TEM 2cat [2, 17]: 1; Fibril ([2]; FigS12 panel B, TEM): 1
KIKIQIMQWN	3.343	2203	3.343	3.343	1		1	1	1	1	0,72	-0,15	-0.1454		-0.15	-0.1454	-0.1454	-0.15	11623.33333	
EIEIQINMWQ	3.102	1264	3.102	3.102	0	0	0	0	0	0	0,13	-0,88	-0.881	-0.88	-0.88	-0.881	-0.881	-0.88	2137	Zeta Count Rate [1]: 1264 kcp; infectivity enhancement relative to EF-C ([3]; 1.3 µM peptide): 13%; Log10 of Rel to EFC (Feb2021) [3, 16]: -0.88
RGDCKFKFQF	3.1264	1338	3.1264	3.1264	1	1	1	1	1	1	0,15	-0,82	-0.8186	-0.82	-0.82	-0.8186	-0.8186	-0.82		
